Results as given in ChEMBL document CHEMBL3871307, “Discovery of Chromane Propionic Acid Analogues as Selective Agonists of GPR120 with in Vivo Activity in Rodents” (ACS Med Chem Lett, 2017).
The source made the active and inactive calls. No cut-off for these calls is given here.

Tests used:
[1] = Volume of distribution at steady state in mouse plasma at 2 mg/kg, iv or 30 mg/kg, po by LC/MS/MS analysis; assay type: ADME, organism-based; conditions: read-out: Vdss
[2] = target: Free fatty acid receptor 1 (Mus musculus, UniProt Q76JU9); experiment: Agonist activity at mouse GPR40 assessed as increase in IP1 accumulation after 60 mins by HTRF assay; assay type: functional
Chain of Free fatty acid receptor 1 (Q76JU9 whole entry): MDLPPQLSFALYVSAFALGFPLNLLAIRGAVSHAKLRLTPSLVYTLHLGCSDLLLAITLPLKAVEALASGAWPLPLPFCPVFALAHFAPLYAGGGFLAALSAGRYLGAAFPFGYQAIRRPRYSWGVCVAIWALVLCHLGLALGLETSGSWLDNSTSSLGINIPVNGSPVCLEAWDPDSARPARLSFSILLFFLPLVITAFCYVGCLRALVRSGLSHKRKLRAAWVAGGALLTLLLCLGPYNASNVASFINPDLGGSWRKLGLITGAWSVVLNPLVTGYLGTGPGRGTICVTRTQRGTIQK

[3] = target: T1, Free fatty acid receptor 4 (Mus musculus, UniProt Q7TMA4); experiment: Agonist activity at mouse GPR120 expressed in human U2OS cells assessed as beta-arrestin recruitment after 90 mins by luminescence assay; assay type: cell-based
T1 sequence (Q7TMA4 whole entry): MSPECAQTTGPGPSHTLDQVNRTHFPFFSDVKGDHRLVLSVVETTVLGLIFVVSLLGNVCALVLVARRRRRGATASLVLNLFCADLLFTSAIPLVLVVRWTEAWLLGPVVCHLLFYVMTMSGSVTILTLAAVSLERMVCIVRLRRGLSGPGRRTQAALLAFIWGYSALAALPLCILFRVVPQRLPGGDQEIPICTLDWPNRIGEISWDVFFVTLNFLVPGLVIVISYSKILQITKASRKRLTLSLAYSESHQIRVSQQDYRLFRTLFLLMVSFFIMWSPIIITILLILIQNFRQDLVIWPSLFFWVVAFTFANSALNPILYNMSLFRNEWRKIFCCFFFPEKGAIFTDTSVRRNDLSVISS

[4] = Intrinsic clearance in rhesus monkey plasma at 0.5 mg/kg, iv or 1 mg/kg, po by LC/MS/MS analysis; assay type: ADME, organism-based, Macaca mulatta; conditions: in vivo
[5] = Clearance in rat plasma at 1 mg/kg, iv or 2 mg/kg, po by LC/MS/MS analysis; assay type: ADME, organism-based
[6] = Plasma concentration in C57BL/6 mouse oral glucose tolerance test at 3 mg/kg, po via gavage measured at 3 hrs
[7] = target: T1, Free fatty acid receptor 4; experiment: Agonist activity at mouse GPR120 expressed in CHOK1 cells assessed as increase in IP1 accumulation after 60 mins by HTRF assay; assay type: functional, cell-based, CHO-K1
[8] = Oral bioavailability in rhesus monkey plasma at 1 mg/kg by LC/MS/MS analysis; assay type: ADME, organism-based, Macaca mulatta
[9] = Plasma concentration in C57BL/6 transverse aortic constriction mouse at 10 mg/kg, po via gavage measured at 3 hrs; assay type: ADME, organism-based; conditions: C57BL/6, mouse
[10] = Mean residence time in mouse plasma at 2 mg/kg, iv or 30 mg/kg, po by LC/MS/MS analysis; assay type: ADME, organism-based
[11] = target: Sodium channel protein type 5 subunit alpha (Homo sapiens, UniProt Q14524); experiment: Inhibition of Nav1.5 (unknown origin)
Chain of Sodium channel protein type 5 subunit alpha (Q14524 whole entry): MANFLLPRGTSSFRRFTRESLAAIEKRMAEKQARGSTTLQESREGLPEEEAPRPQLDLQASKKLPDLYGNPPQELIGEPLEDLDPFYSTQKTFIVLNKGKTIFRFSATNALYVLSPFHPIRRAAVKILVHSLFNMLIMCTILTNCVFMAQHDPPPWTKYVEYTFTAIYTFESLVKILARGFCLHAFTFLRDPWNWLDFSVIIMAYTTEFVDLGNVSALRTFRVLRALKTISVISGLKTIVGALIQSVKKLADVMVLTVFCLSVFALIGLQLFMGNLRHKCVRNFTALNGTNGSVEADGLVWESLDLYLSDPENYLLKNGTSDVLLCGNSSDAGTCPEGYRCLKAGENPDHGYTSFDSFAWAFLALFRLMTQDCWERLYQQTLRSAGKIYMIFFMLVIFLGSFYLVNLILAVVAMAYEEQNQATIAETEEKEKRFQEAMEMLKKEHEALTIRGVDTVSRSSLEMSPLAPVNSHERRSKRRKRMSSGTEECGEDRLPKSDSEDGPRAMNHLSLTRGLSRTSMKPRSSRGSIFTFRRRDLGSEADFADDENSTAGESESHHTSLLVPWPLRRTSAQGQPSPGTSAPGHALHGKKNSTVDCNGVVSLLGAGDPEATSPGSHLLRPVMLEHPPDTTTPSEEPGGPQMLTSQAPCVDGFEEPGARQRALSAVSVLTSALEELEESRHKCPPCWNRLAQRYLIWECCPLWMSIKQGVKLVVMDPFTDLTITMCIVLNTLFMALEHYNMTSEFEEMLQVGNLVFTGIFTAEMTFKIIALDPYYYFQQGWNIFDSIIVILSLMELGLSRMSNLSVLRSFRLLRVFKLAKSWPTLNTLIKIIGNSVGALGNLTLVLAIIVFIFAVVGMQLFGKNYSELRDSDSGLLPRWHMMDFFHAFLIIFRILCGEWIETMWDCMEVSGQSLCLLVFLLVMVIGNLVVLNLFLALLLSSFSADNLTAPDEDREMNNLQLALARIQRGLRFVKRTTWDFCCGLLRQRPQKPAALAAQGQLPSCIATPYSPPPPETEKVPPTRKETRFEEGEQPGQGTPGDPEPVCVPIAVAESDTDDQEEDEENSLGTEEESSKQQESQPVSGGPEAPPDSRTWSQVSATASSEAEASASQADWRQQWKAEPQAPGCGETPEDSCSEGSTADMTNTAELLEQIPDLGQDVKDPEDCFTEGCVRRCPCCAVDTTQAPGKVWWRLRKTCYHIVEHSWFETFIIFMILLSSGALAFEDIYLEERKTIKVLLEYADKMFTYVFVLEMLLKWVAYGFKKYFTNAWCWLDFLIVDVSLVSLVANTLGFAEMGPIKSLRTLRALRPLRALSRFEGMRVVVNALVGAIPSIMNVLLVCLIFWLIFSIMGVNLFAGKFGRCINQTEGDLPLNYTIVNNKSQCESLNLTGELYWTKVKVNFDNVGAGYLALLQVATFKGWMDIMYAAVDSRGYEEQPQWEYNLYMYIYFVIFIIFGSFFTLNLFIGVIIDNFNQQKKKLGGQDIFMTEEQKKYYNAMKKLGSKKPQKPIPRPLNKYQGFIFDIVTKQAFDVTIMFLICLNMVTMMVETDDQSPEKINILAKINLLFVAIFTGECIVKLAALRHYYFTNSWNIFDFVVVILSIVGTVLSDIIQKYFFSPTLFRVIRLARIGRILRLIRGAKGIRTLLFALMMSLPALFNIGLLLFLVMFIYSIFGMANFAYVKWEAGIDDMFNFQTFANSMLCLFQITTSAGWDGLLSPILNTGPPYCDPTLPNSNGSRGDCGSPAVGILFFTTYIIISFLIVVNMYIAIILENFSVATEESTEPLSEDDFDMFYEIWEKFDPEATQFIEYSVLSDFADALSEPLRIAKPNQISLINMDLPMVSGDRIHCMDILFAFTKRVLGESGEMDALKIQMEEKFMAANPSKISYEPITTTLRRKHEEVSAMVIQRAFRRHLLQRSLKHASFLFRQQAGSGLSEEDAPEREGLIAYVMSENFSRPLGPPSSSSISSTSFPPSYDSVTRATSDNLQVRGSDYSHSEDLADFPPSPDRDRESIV

[12] = Volume of distribution at steady state in rat plasma at 1 mg/kg, iv or 2 mg/kg, po by LC/MS/MS analysis; assay type: ADME, organism-based; conditions: read-out: Vdss
[13] = Plasma concentration in wild type C57BL/6 transverse aortic constriction mouse harboring GPR120 at 150 mg/kg, po measured at 3 hrs; assay type: ADME, organism-based; conditions: C57BL/6, mouse
[14] = Terminal half life in mouse plasma at 2 mg/kg, iv or 30 mg/kg, po by LC/MS/MS analysis; assay type: ADME, organism-based; conditions: read-out: beta t1/2 (converted)
[15] = Protein binding in rat plasma at 0.1 mg/kg administered as iv casette dose by LC/MS/MS analysis; assay type: ADME, organism-based; conditions: read-out: PPB (converted)
[16] = Intrinsic clearance in rat plasma at 0.1 mg/kg administered as iv casette dose by LC/MS/MS analysis; assay type: ADME, organism-based; conditions: in vivo
[17] = target: T2, Peroxisome proliferator-activated receptor gamma (Homo sapiens) (UniProt P37231); experiment: Activity at PPARgamma (unknown origin)
T2 sequence (whole entry): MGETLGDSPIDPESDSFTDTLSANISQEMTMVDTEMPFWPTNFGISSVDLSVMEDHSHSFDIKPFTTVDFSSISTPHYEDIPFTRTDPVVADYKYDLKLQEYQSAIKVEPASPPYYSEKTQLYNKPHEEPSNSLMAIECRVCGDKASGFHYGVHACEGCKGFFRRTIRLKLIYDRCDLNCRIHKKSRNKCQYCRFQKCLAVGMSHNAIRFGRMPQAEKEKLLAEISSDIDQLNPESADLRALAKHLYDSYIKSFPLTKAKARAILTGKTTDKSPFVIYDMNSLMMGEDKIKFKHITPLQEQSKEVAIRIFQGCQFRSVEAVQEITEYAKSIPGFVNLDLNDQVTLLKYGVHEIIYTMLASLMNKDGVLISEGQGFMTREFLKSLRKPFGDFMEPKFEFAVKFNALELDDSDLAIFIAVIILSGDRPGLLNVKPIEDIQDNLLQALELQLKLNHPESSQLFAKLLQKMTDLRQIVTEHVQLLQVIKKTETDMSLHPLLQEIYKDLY

[18] = Inhibition of IKr (unknown origin) expressed in HEK293 cells; assay type: cell-based, Homo sapiens
Mus musculus = experiment: In vivo agonist activity at GPR120 in wild type C57BL/6 transverse aortic constriction mouse assessed as glucose lowering effect at 150 mg/kg, po via gavage pretreated for 60 mins followed by dextrose challenge measured up to 120 mins post glucose challenge by OGTT; assay type: functional, organism-based
[19] = Plasma concentration in GPR120 knockout C57BL/6 transverse aortic constriction mouse at 150 mg/kg, po measured at 3 hrs; assay type: ADME, organism-based; conditions: C57BL/6, mouse
[20] = Protein binding in rat plasma at 1 mg/kg, iv or 2 mg/kg, po by LC/MS/MS analysis; assay type: ADME, organism-based; conditions: read-out: PPB (converted)
[21] = target: T3, Free fatty acid receptor 4 (Homo sapiens, UniProt Q5NUL3); experiment: Agonist activity at human GPR120 short isoform expressed in CHOK1 cells assessed as beta-arrestin recruitment after 90 mins by luminescence assay; assay type: cell-based, CHO-K1
T3 sequence (Q5NUL3 whole entry): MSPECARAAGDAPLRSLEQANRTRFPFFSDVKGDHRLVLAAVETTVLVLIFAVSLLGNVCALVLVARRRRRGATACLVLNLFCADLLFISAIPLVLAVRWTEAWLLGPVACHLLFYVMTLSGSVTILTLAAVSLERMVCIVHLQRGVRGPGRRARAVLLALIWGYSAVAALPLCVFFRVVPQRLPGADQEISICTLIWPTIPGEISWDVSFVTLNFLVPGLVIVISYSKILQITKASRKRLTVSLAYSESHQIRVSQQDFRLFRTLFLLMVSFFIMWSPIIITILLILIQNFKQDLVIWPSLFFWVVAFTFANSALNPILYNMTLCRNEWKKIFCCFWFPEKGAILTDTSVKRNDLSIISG

Cytochrome P450 2D6 = Cytochrome P450 2D6 (Homo sapiens, UniProt P10635); experiment: Inhibition of human CYP2D6; assay type: ADME
Chain of Cytochrome P450 2D6 (P10635 whole entry): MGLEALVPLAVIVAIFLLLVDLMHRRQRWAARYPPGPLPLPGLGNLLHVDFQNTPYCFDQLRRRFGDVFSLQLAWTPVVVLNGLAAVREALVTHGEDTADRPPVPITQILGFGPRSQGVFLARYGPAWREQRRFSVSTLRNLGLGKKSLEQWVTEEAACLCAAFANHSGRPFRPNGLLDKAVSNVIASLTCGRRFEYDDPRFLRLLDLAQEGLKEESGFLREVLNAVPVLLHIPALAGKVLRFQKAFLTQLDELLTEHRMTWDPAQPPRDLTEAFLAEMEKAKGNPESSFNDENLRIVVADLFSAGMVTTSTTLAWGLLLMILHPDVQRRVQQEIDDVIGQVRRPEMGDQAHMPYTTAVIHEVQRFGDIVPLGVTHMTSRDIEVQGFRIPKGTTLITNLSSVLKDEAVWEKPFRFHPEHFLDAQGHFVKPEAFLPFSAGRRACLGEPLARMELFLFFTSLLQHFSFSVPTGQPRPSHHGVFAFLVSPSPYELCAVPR

[22] = Protein binding in rhesus monkey plasma at 0.5 mg/kg, iv or 1 mg/kg, po by LC/MS/MS analysis; assay type: ADME, organism-based, Macaca mulatta; conditions: read-out: PPB (converted)
[23] = Intrinsic clearance in rat plasma at 1 mg/kg, iv or 2 mg/kg, po by LC/MS/MS analysis; assay type: ADME, organism-based; conditions: in vivo
[24] = Oral bioavailability in mouse plasma at 30 mg/kg by LC/MS/MS analysis; assay type: ADME, organism-based
Cytochrome P450 2C9 = Cytochrome P450 2C9 (Homo sapiens, UniProt P11712); experiment: Inhibition of human CYP2C9; assay type: ADME
Chain of Cytochrome P450 2C9 (P11712 whole entry): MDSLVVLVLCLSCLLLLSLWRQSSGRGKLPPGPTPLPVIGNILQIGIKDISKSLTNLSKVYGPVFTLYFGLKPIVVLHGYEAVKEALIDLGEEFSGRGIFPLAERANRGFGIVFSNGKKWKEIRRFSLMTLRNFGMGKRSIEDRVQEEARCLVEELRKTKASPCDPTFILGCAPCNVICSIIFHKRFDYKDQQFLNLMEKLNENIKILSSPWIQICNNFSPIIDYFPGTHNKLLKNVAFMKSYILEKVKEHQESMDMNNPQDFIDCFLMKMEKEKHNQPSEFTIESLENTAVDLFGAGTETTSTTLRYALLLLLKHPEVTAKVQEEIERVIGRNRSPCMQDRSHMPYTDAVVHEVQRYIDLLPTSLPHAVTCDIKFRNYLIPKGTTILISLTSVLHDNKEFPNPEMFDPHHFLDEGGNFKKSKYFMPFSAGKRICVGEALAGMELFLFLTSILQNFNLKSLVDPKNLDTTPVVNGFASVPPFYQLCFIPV

## CO[C@H]1C[C@H](Oc2cc(F)c(F)c(-c3ccc4c(c3)CC[C@H](CCC(=O)O)O4)n2)C1
[1]
  Vd: 1.4 L/kg
[2]
  EC50: > 10 µM
[3]
  EC50: 0.0068 µM
[4]
  CL: 150 mL/min/kg
[5]
  clearance: 1.1 mL/min/kg
[6]
  concentration at 3 h: 0.75 µM
[7]
  EC50: 0.0064 µM
[8]
  bioavailability: 82%
[9]
  concentration at 3 h: 1.17 µM
[10]
  MRT: 2.4 h
[11]
  IC50: 27 µM
[12]
  Vd: 0.3 L/kg
[13]
  concentration at 3 h: 43.9 µM
[14]
  half-life: 3 h
[15]
  fraction unbound: 0.0024
[16]
  CL: 560 mL/min/kg
[17]
  Activity: > 10 µM
[18]
  IC50: > 60 µM
Mus musculus
  Activity: Active
[19]
  concentration at 3 h: 53.4 µM
[20]
  fraction unbound: 0.0024
[21]
  EC50: 0.024 µM
Cytochrome P450 2D6
  IC50: > 50 µM
[22]
  fraction unbound: 0.0022
[23]
  CL: 470 mL/min/kg
[24]
  bioavailability: 76%
Cytochrome P450 2C9
  IC50: > 50 µM
